Experimental data: patent publication US11465972B2, “Inhibitors of oxidized low-density lipoprotein receptor 1 and methods of use thereof” (United States Government as represented by the Department …, priority 2015, dated 2022)
“Also recorded” adds a separate entry of the source.

Legend:
human LOX-1 = human LOX-1 (Homo sapiens, UniProt P78380); experiment: Thermal shift assay with purified LOX-1 protein; assay type: binding; design: It encodes for 147 amino acids for the LOX-1 fragment (residues 136-273); made in house; host or cells: E. coli BL21 (DE3), co-expressed with DsbC; settings: for thermal shift (in words): differential scanning fluorimetry; for thermal shift of LOX-1 protein: LOX-1 protein 4 μM, ligand 50 μM, shifts in Celsius
Source text: FIG. 2A, FIG. 2B and FIG. 2C depict the docking of the 5 lead compounds and the thermal denaturation assay: (FIG. 2A) The figure depicts the docking of the 5 lead compounds in the binding pocket of LOX-1. LOX-1 is shown as a ribbon model with one monomer in magenta and the other in blue. The compounds are shown as stick models in separate colors. (FIG. 2B) Hydrogen bonding interactions of the compounds as they dock to LOX-1. (FIG. 2C) The measured thermal shifts (in Celsius) are depicted for all five molecules. The solutions contained LOX-1 protein at 4 μM concentration. The ligand concentrations were 50 μM.
As the next step, a protein assay was performed to assess the interaction of the lead compounds with LOX-1 protein for an additional confirmation of the binding to LOX1. The extracellular domain of LOX-1 was expressed and the protein was purified. Using the purified protein, a thermal shift assay was performed. The technique involves measuring thermal denaturation temperatures of the protein in the presence and absence of inhibitors. A larger shift in thermal denaturation is indicative of a tight binding of the ligand to the protein.
In short, the thermal shift assay was performed using a real-time PCR detection system with the fluorescent dye sypro orange to monitor protein unfolding. Fluorescence increases upon protein unfolding because sypro orange has higher quantum in lower dielectric medium and low quantum in higher dielectric medium. During the thermal shift assay a protein exposes the hydrophobic region which corresponds to a lower dielectric environment. The thermal shift assay instrument contains accurate temperature control devices and a CCD detector for simultaneous imaging of fluorescence changes in the microplate. The typical reaction volume of a thermal shift assay is 20 μl, which includes the protein solution, the test compound solution, and the sypro orange. The temperature in the real-time PCR machine during the thermal shift assay was ramped 0.5° C./minute till 100° C.
The C-terminal domain of LOX-1 was expressed by using the protocols reported earlier^12. As this domain contains several disulfide bridges, it was co-expressed with DsbC, a Chaperone disulfide isomerase. The genes were custom synthesized by Genscript (Piscataway, N.J.) using gene map described in Park el al^12. It encodes for 147 amino acids for the LOX-1 fragment (residues 136-273) and 236 amino acids for DsbC. The gene was incorporated into a pET15b vectors by Genscript. The vectors were then transformed into Dh5α cells for amplification and BL21 (DE3) E. coli (Novagen) cells for expression. The proteins were expressed by adding 0.4 mM isopropyl β-D-thiogalactoside in E. coli cells grown in LB medium containing kanamycin, tetracycline, and carbenicillin at 23° C., with 250 rpm agitation, for 20 h. The protein was purified using a nickel-nitrilotriacetic acid column (Qiagen, Valencia, Calif.). And then, the protein samples were concentrated to 10 mg/ml.
LOX-1 protein was incubated with fluorescent dye Sypro Orange (Invitrogen/Life Technologies, Grand Island, N.Y.) and the thermal unfolding of the LOX-1 protein was monitored by measuring the fluorescence using Bio-Rad Real Time PCR machine. We measured the melting temperatures in the absence and presence of the inhibitors 4 tM of LOX-1 protein was incubated with Sypro Orange and heated in stepwise increments of 0.5° C. per min from 25-99° C. The wavelength for excitation was set to 490 and emission was set to 575 nm for Sypro Orange. Fluorescence was measured after every minute for each 0.5° C. increase.

ERK1/2 = experiment: ox-LDL-induced activation (phosphorylation) of ERK1/2 in HUVECs (Western blotting); assay type: cell-based, human; settings: 200 nM
Method: FIG. 4A, FIG. 4B, FIG. 4C, FIG. 4D and FIG. 4E depict the effect of lead molecules on ox-LDL-induced the activation of MAPKs in HUVECs, VCAM-1 expression and monocyte adhesion onto HUVECs. […] (FIG. 4B) Western blot analyses showing phospho-p38MAPK expression in HUVECs following exposure to 200 nM of each compound for 30 min, and subsequently exposed to 5 μg/mL ox-LDL for 6 hours. […] (FIG. 4D) The variation of VCAM-1 mRNA expression levels with different concentrations of the led compounds. The concentrations are indicated on the X-axis and the VCAM-1 mRNA levels are shown on the Y-axis. The plots for all five molecules are shown in separate colors. […] Graphs show data as mean (±SD); n=3 (for Western blot and PCR assays) or n=20 (for monocyte adhesion assay). *P<0.01 vs. control; #P<0.01 or <0.05 vs. ox-LDL group.
To assess downstream effects of each candidate molecule, ox-LDL induced expression and activation of ERK1/2 and P38MAPK was measured in HUVECs in the absence or presence of each candidate molecule (200 nM). […] Importantly, unphosphorylated MAPKs were not affected by any of the candidate molecules.
HUVECs were plated into 6-well cell culture plates. When the cells were reached 70% confluence, they were treated with 200 nM of each of 5 molecules for 30 min, and subsequently exposed to […] ox-LDL for 6 h. After washing with PBS for 2 times, the cells were treated with Cell Lysis Buffer (Promega, Madison, Wis.) with protease Inhibitor and phosphatase Inhibitor (Sigma-Aldrich, St. Louis, Mo.). The protein concentrations were measured by Bradford protein assay. Proteins (20 tg) were separated by electrophoresis in 12% precast SDS-PAGE gels, and were transferred onto Nitrocellulose Blotting Membrane (GE Healthcare Life Science, Piscataway, N.J.). The membranes were then incubated with LOX-1, VCAM-1 (Abcam, Cambridge, Mass.), ERK1/2, phospho-ERK1/2, phospho-p38MAPK (Cell Signaling Technology, Inc., Danvers, Mass.), or […] (Santa Cruz Biotechnology, Inc., Dallas, Tex.) primary antibodies (1:1000˜1:2000) in blocking solution at 4° C. overnight. Following wash with TBS-1 for 3 times, the blots were incubated with HRP-conjugated secondary antibodies (1:10000) in blocking solution for 1 hour at room temperature. After 3 washes with PBS, the blots were treated with Western Blotting Luminol Reagents (Santa Cruz Biotechnology) for 3 min and then exposed to Blue Basic Autorad Film (GeneMate, Kaysville, Utah). The protein bands were scanned by a Gel Doc™ XR System (Bio-Rad, Hercules, Calif.), and the density of each band was quantified by Image J software. The relative expression of target proteins was calculated with comparison to […] bands.

thermal shift (in words) (human LOX-1)	thermal shift of LOX-1 protein (human LOX-1) [°]	Compound	effect on ox-LDL-induced activation/phosphorylation of ERK1/2 (in words) (ERK1/2)	effect on ox-LDL-induced activation/phosphorylation of ERK1/2 (in words) (ERK1/2; listed as MoL-4)
did not show measurable shifts	–	CCOCCCNC(=O)CCN1C(=O)COc2ccccc21 [Mol-1]	significantly inhibited; also recorded: moderately	–
significant thermal shift	4	Cc1cc(C)n(CC(O)COc2ccccc2)n1 (centres unmarked) [Mol-5, 1-(3,5-dimethyl-1H-pyrazol-1-yl)-3-phenoxypropan-2-ol]	significantly inhibited; also recorded: maximum inhibition; also recorded: potently reduced	–
significant thermal shift	10	CCCn1c(CCNC(=O)CCCO)nc2ccccc21 [Mol-4]	potently reduced	significantly inhibited
did not show measurable shifts	–	CC(C)(C)C(=O)NCCc1nc2ccccc2n1Cc1ccccc1F [Mol-2]	no significant effect	–
